Experiments:
[1] = test system: rabbit hind limb (femoral arterial bed), substance P receptors; assay: Vascular response in rabbit blood perfused hind limb preparation; format: in vivo
Text: The in vivo receptor pharmacology of the compound produced in Example 3d., above, was studied in a rabbit blood perfused hind limb preparation similar to that described by U. Forstermann et al., J. Pharmacol. Exp. Ther., 234: 1055-61 (1987). Blood from a pentobarbital anesthetized, artificially ventilated rabbit was withdrawn from a cannulated carotid artery, passed within medical grade silastic tubing through a constant speed roller pump, and directed to a cannulated femoral artery. Distal perfusion pressure in the femoral arterial bed was measured (in mm Hg) by means of a micropressure transducer (Millar) passed down the perfusion tubing so as to lie just beyond the tip of the femoral catheter. Initially, pump speed was adjusted so that distal perfusion pressure approximated systemic mean arterial blood pressure after which blood flow was kept constant for the remainder of each experiment. Changes in resistance then varied directly as distal perfusion pressure in a manner similar to that described by Ohm's law, such that:
Vascular Resistance=Perfusion Pressure Blood Flow
Thus, by maintaining blood flow constant for the duration of each experiment, changes in distal perfusion pressure directly reflected vascular resistance such that a decrease in pressure signifies vasodilation and an increase in pressure signifies vasoconstriction. Direct injection into the perfusion circuit could thus be used to assess the vascular biology and pharmacology of substances believed to exert actions on in vivo vascular smooth muscle tone.

membrane ghosts = assay: Membrane binding stability (MBS) assay in membrane ghosts with 5% albumin; settings: 24 hours, Table III
Text: Determination of Membrane Binding Stability
For example, very stable binding to membranes might be required for applications such as delivery of therapeutic radionuclides to tumor sites, as loss of compound could lead to the radionuclide producing its toxic effect at non-tumor sites. On the other hand, more rapid loss of compound from biomembranes may be desirable for application involving controlled delivery rates of therapeutic agents. Accordingly, there is described hereinbelow an assay for determining MBS under conditions approximating those found in vivo.
In carrying out this assay, approximately physiological concentrations of serum albumin (5%) are used. […] To better approximate the effects of large fluid volumes to which labelled cells are exposed in vivo, the assay for MBS is carried out by suspending a decreasing number of labeled membrane ghosts in a fixed volume of albumin-containing saline. At 24 hours, the total amount of label present is determined by sampling the well mixed suspension; subsequently, the membrane ghosts are pelleted by centrifugation and the amount of label released into the supernatant is determined and expressed as a percent of total label. Percent retention is plotted against number of ghosts per ml. of suspension, and MBS is determined as the area under the curve between 5×10^7 ghosts/ml. and 4×10^8 ghosts/ml.

[2] = test system: red blood cell ghosts (plasma membrane); assay: Membrane retention coefficient (MRC) in red blood cell ghosts; format: binding; settings: for Δ MRC: change in MRC to 24 hr
Procedure: Determination of Membrane Retention Coefficient
The membrane retention coefficient (MRC) provides information regarding how well a given compound is retained in the plasma membrane of a cell and is determined as described below.
Generation of red blood cell ghosts for use as a model membrane is achieved by centrifuging whole blood at 300×g for 15 minutes, removal of the plasma and resuspension of the cell pellet in 0.83% (w/v) ammonium chloride. The ghosts are pelleted from the ammonium chloride by centrifuging at 10,000×g for 10 minutes. This ammonium chloride washing procedure is repeated a minimum of five times to insure that complete release of hemoglobin from the cells has occured. The ghosts are labeled with the compound in question at a concentration allowing for detection of the labeled ghosts by instrumental analysis or fluorescent microscopic methods, and at a concentration similar to those that would be used to label cells for a specific application as described above. For the determinations hereinbelow stock solutions of the compounds in question were prepared in ethanol at a molar concentration of 2×10^-3, and working dilutions of the compounds were prepared in iso-osmotic sucrose (52 g/500 ml distilled water). After incubation of the ghosts at an approximate concentration of 1×10^9 ghosts/ml in the working dilutions of the compounds for 10 minutes, the samples were centrifuged at 10,000×g to pellet the ghosts and the staining solution was aspirated from the samples. The labeled ghosts were resuspended in 1 ml of phosphate buffered saline solution containing 10% fetal bovine serum (PBS-FBS). Triplicate 20 ul aliquots were removed from each sample for the determination of the amount of total compound present. The samples were centrifuged as described above and triplicate 20 ul aliquots were removed from the supernatant for quantitative determination of amount of unbound compound present.
After sampling, the supernatant was aspirated and the red cell ghost pellet was resuspended in 1.0 ml of the PBS-FBS, which was once again sampled as described above. This procedure was repeated at least six times, allowing for detection of rapidly released compounds and was monitored after times equal to or greater than 24 hours to allow for the detection of more slowly released compounds. For the determination of the amount of compound present in each sample, the 20 ul aliquots were extracted into 3.0 ml of n-butanol by shaking. The samples were centrifuged at 3000×g to remove membrane debris and the butanol fractions were assayed for compound concentration. Fluorescent compounds are assayed in this manner using peak excitation and emission wave lengths for the particular compounds being assayed to determine the fluorescence units for each sample.
The determination of the amount of compound present in each sample as described above allows for the calculation of the MRC for each washing or fixed time point. The value is obtained by the following formula: […]
wherein CT represents the amount of compound present (in units determined by the method used to assay the compound) in the total sample and CS represents the amount of compound present in the supernatant sample for that particular time point. The comparison of the MRC values defines criteria for identification of the compounds of this invention, these criteria being: 1) the MRC values determined for each washing steps should have a value of at least about 90 and 2) the percent difference between MRC values over at least a 24 hour time period should be less than about 10%. [drawing 14]
The data provided in Table I below are the results from one experiment and serve as an example of the MRC determination. […]

SMILES | MBS (membrane ghosts) [%] | Membrane retention coefficient (MRC), 24 HR [2] | Δ MRC [2] [%] | Membrane retention coefficient (MRC), WASH 1 [2] | Membrane retention coefficient (MRC), WASH 2 [2] | Membrane retention coefficient (MRC), WASH 3 [2] | Membrane retention coefficient (MRC), WASH 4 [2] | Membrane retention coefficient (MRC), WASH 5 [2] | Membrane retention coefficient (MRC), WASH 6 [2] | other results
CC(C)NCC(O)c1ccc(O)c(O)c1 (stereo not shown) [isoproterenol, reference compound] | – | – | – | – | – | – | – | – | – | Effect of antagonist [D-Pro^2,D-Trp^7.9]-substance P on the response ([1]; during infusion of antagonist): not antagonized by the SP antagonist; Hind-limb perfusion pressure response ([1]; local injection, no antagonist): dose related decrease in perfusion pressure
CCCCCCCCCCCCCCN1C(=CC=CC2=[N+](CCC)c3ccccc3C2(C)C)C(C)(C)c2ccccc21 [AC] | 10 ± 2.1 | – | – | – | – | – | – | – | – | –
CCCCCCCCCCCCCCCCCCN1C(=CC=Cc2sc3ccccc3[n+]2CCCCCCCCCCCCCCCCCC)Sc2ccccc21 [AA] | 94 ± 1.5 | – | – | – | – | – | – | – | – | –
CCCCCN1C(=CC=CC2=[N+](CCCCC)c3ccccc3C2(C)C)C(C)(C)c2ccccc21 [A] | – | 0.00 | 100.00 | 51.63 | 51.12 | 44.82 | 41.39 | 12.59 | 17.48 | –
CCCCCCCCCCCCCCCCCCCCCC[n+]1c2cc(N(C)C)ccc2cc2ccc(N(C)C)cc21 [L] | – | 96.82 | 3.12 | 97.90 | 98.89 | 98.90 | 99.18 | 99.09 | 99.22 | –
CCCCCCCCCCCCCCCCCC[n+]1c2cc(N(C)C)ccc2cc2ccc(N(C)C)cc21 [M] | – | 42.88 | 55.79 | 91.01 | 95.12 | 95.82 | 96.42 | 96.27 | 97.01 | –
CCCCCCCCCCCCCCCCCCN1C(=CC=Cc2oc3ccccc3[n+]2CCCCCCCC)Oc2ccccc21 [I] | – | 97.65 | 2.08 | 94.69 | 98.24 | 98.32 | 98.78 | 98.96 | 99.73 | –
CCCCCCCCCCN1C(=CC=CC2=[N+](CCCCCCCCCC)c3ccccc3C2(C)C)C(C)(C)c2ccccc21 [B] | – | 54.08 | 42.95 | 83.28 | 92.36 | 94.63 | 94.94 | 95.33 | 94.80 | –

More lines, main results first:

MBS (membrane ghosts) [%] | SMILES | Membrane retention coefficient (MRC), 24 HR [2] | Δ MRC [2] [%] | Membrane retention coefficient (MRC), WASH 1 [2] | Membrane retention coefficient (MRC), WASH 2 [2] | Membrane retention coefficient (MRC), WASH 3 [2] | Membrane retention coefficient (MRC), WASH 4 [2] | Membrane retention coefficient (MRC), WASH 5 [2] | Membrane retention coefficient (MRC), WASH 6 [2] | other results
77 ± 1.1 | CCCCCCCCCCCCCCN1C(=CC=Cc2oc3ccccc3[n+]2CCCCCCCCCCCCCC)Oc2ccccc21 [W] | – | – | – | – | – | – | – | – | –
47 ± 3.1 | CCCCCCCCCCCCCCCCCCCCCCN1C(=CC=Cc2oc3ccccc3[n+]2CCC)Oc2ccccc21 [U] | – | – | – | – | – | – | – | – | –
91 ± 1.3 | CCCCCCCCCCCCCCN1C(=CC=Cc2sc3ccccc3[n+]2CCCCCCCCCCCCCC)Sc2ccccc21 [X] | – | – | – | – | – | – | – | – | –
93 ± 1.0 | CCCCCCCCCCCCCCCCCCN1C(=CC=Cc2oc3ccccc3[n+]2CCCCCCCCCCCCCCCCCC)Oc2ccccc21 [Y] | – | – | – | – | – | – | – | – | –
64 ± 3.4 | CCCCCCCCCCCCCCCCCCCCCCN1C(=CC=Cc2sc3ccccc3[n+]2CCC)Sc2ccccc21 [V] | – | – | – | – | – | – | – | – | –

— patent US5667764A, “Compounds, compositions and methods for binding bio-affecting substances to surface membranes of bio-particles” (Zynaxis, Inc., priority 1992, dated 1997)
